Data as given in US20040052728A1, “Diagnostic imaging” (priority 1998, published 2004).
Like-named read-outs stand apart in the source and are kept apart here.

Columns and labels:
[1] = system: myocardium; experiment: Open chest ultrasound imaging of the heart with contrast agent, then adenosine bolus; assay type: in vivo, dog
Procedure: A midline sternotomy was performed on an anaesthetised 20 kg mongrel dog and the anterior pericardium was removed. A short axis view of the heart was imaged with an ATL HDI-3000 scanner, using a P5-3 transducer in harmonic mode; a 30 mm silicone rubber spacer having low ultrasound attenuation was placed between the transducer and the anterior surface of the heart. ECG gating was used so as to acquire one image in each end-systole.
(§1) In order to analyse ultrasound images obtained according to the procedure of Example 1, the images were first converted from video images into grey level digital images (640×480 pixels) using a frame grabber. A fixed central region (399×399 pixels) covering the image sector was selected for further processing. The thus-obtained images were decimated by averaging 3×3 pixels into new images (133×133 pixels) and were then median filtered using a sliding region (5×5 pixels).
(§2) A single image obtained just before onset of adenosine-induced vasodilatation was selected as a geometrical template to which all other images were automatically adjusted to maximum pixel correlation by an affine transformation (6 degrees of freedom). Only pixels within a region of interest in the template image encompassing the left ventricle and its myocardium were used for calculating maximum pairwise pixel grey level correlation.
(§3) 6-10 baseline images from before the appearance of adenosine effects were averaged to give a representative baseline image, and a similar number of images at peak adenosine effect were likewise averaged. The two thus-obtained averaged images were then subtracted and the difference was colour coded. […] The colour coding was selected to represent the range −4 dB (blue colour) to +4 dB (red colour).
Images were acquired as described in Example 1 and processed according to the method of Example 4. The normal myocardium was depicted with a homogeneous colour indicating a signal increase of some 3-4 dB.

[2] = in vivo; cited from earlier work
[3] = system: left circumflex perfusion beds; details: contrast agent perfluoropropane-enhanced sonicated dextrose albumin i.v., cited from earlier work
[4] = system: myocardium; experiment: Open chest ultrasound imaging with partial coronary occlusion (snare on left anterior descending coronary artery); assay type: in vivo, dog; details: for change in contrast effect in the myocardium, except in areas supplied by the stenotic artery: one minute after start of infusion
Procedure: The procedure of Example 1 was repeated except that an occluding snare was placed around the major branch of the left anterior descending coronary artery. An ultrasound transit time flow meter was applied to the same artery and the snare was adjusted to give a stable reduction in blood flow to about 75% of the normal value. Contrast agent and adenosine injections were then administered as in Example 1.
as §1, §2, §3
Images were acquired as described in Example 3 and processed according to the method of Example 4.
The procedure of Example 3 is repeated except that the bolus injection of adenosine is replaced with a pumpcontrolled infusion of dobutamine at a rate of 15 μg/kg/min.
The procedure of Example 3 is repeated except that the bolus injection of adenosine is replaced with a pumpcontrolled infusion of arbutamine at a rate of 0.4 μg/kg/min.

[5] = system: myocardium; experiment: Imaging in man: pulse inversion imaging of the heart with contrast agent and adenosine infusion; assay type: in vivo, human; details: adenosine i.v. infusion 140 μg/kg/min, apical 2-chamber view, Preparation 1 contrast agent
Procedure: A patient with an angiographically verified 80% left anterior descending arterial stenosis was given an intravenous injection of 1 ml of a perfluorobutane microbubble suspension prepared as in Preparation 1. The heart was imaged with an ATL HDI-5000 scanner and a P4-2 transducer, using ECG-gated (every second end-systole) pulse inversion imaging; the mechanical index was 0.6. The heart was imaged from an apical 2-chamber view. […] Intravenous infusion of adenosine at a rate of 140 μg/kg/min was then started, and a sequence of 30 images, of which 10 were before the onset of adenosine effects in the heart, were stored in digital format. The images were processed as in Example 4, but without the initial video grabbing steps.

[6] = system: myocardium; experiment: Closed chest ultrasound imaging of the heart with contrast agent, then adenosine bolus; assay type: in vivo, dog; details: Preparation 1 contrast agent
Text: The procedure of Example 1 was repeated with a closed chest dog, using a parasternal transducer position. The resulting ultrasound images were less homogeneous as regards signal intensities than the images obtained in Example 1, as a result of acoustic effects of the intact chest wall.
as §1, §2
6-10 baseline images from before the appearance of adenosine effects were averaged to give a representative baseline image, and a similar number of images at peak adenosine effect were likewise averaged. […]

[7] = adenosine 150 μg/kg i.v. bolus after Preparation 1 contrast agent
[8] = blood flow reduced to about 75% of normal, adenosine 150 μg/kg i.v. bolus, Preparation 1 contrast agent
[9] = following injection of adenosine, processed difference image

SMILES: Nc1ncnc2c1ncn2[C@@H]1O[C@H](CO)[C@@H](O)[C@H]1O [Adenosine, adenosine]
- change in echo intensity from the myocardium [1, 7]: distinct general increase in echo intensity
- duration of the increase in echo intensity [1, 7]: ~15 s
- time from adenosine injection to increase in echo intensity from the myocardium [1, 7]: 7 s
- signal increase in normal myocardium (processed difference image) ([1]; open chest, peak adenosine effect versus baseline, Preparation 1 contrast agent): 3-4 dB
- blood pool half-life [2]: only a few seconds
- ratio of peak myocardial videointensities, adenosine stress compared to resting ([3]; stenoses with diameter in excess of 70%): 0.8-1.4
- ratio of peak myocardial videointensities, adenosine stress compared to resting ([3]; stenoses with diameter not exceeding 50%): 1.8-2.1
- change in contrast effect in all other areas of the myocardium [4, 8]: increase
- change in contrast effect in tissue areas affected by the occlusion [4, 8]: slight decrease in contrast effect
- decrease in signal intensity in myocardial tissue affected by the simulated coronary stenosis [4, 9]: 1-3 dB
- increase in signal intensity in normal myocardium [4, 9]: 2-3 dB
- decrease in signal intensity in myocardial regions supplied by the stenotic artery [5]: 1-2 dB
- increase in signal intensity in normal regions of the myocardium [5]: 2-3 dB
- change in echo intensities after injection of adenosine ([6]; parasternal transducer position): general increase in echo intensities comparable to that observed in Example 1
- signal increase in normal myocardium (processed difference image) ([6]; peak adenosine effect versus baseline): 3-4 dB

SMILES: Oc1ccc(CCCCNC[C@H](O)c2ccc(O)c(O)c2)cc1 [arbutamine]
- change in contrast effect in the myocardium, except in areas supplied by the stenotic artery ([4]; arbutamine infusion 0.4 μg/kg/min, Preparation 1 contrast agent): increase in contrast effect

SMILES: CC(CCc1ccc(O)cc1)NCCc1ccc(O)c(O)c1 (centres unmarked) [dobutamine]
- change in contrast effect in the myocardium, except in areas supplied by the stenotic artery ([4]; dobutamine infusion 15 μg/kg/min, Preparation 1 contrast agent): increase in contrast effect
